Laboratory results: PubChem BioAssay (NCI)
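Abbreviation: GI50, concentration required for 50% inhibition of growth. TGI marks complete inhibition of growth.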

What was measured:
Assay in all cases: DTP human tumour cell line panel, 384-well format
[1] = tested on: MDA-MB-435 melanoma
[2] = tested on: OVCAR-3 ovarian
[3] = tested on: MDA-MB-231 breast
[4] = tested on: UACC-257 melanoma
[5] = tested on: SF-539 CNS
[6] = tested on: SK-MEL-28 melanoma
[7] = tested on: SR leukemia
[8] = tested on: SK-MEL-2 melanoma
[9] = tested on: NCI-H460 NSCLC
[10] = tested on: MCF7 breast
[11] = tested on: KM12 colon
[12] = tested on: TK-10 renal
[13] = tested on: SK-MEL-5 melanoma
[14] = tested on: K-562 leukemia
[15] = tested on: RXF 393 renal
[16] = tested on: HOP-92 NSCLC
[17] = tested on: A549 NSCLC
[18] = tested on: OVCAR-5 ovarian
[19] = tested on: SF-295 CNS
[20] = tested on: UO-31 renal
[21] = tested on: OVCAR-8 ovarian
[22] = tested on: COLO 205 colon
[23] = tested on: ACHN renal
[24] = tested on: NCI-H23 lung
[25] = tested on: MOLT-4 leukemia
[26] = tested on: M14 melanoma
[27] = tested on: NCI-H522 lung
[28] = tested on: CAKI-1 renal
[29] = tested on: OVCAR-4 ovarian
[30] = tested on: A498 renal
[31] = tested on: U251 glioblastoma
[32] = tested on: SNB-19 CNS
[33] = tested on: SF-268 CNS
[34] = tested on: HCC-2998 colon
[35] = tested on: LOX IMVI melanoma
[36] = tested on: HOP-62 NSCLC
[37] = tested on: T-47D breast
[38] = tested on: NCI-H226 lung
[39] = tested on: SK-OV-3 ovarian
[40] = tested on: HT29 colon
[41] = tested on: 786-0 renal
[42] = tested on: DU-145 prostate
[43] = tested on: NCI-H322M lung
[44] = tested on: BT-549 breast
[45] = tested on: HL-60(TB) leukemia
[46] = tested on: SN12C renal
[47] = tested on: IGROV1 ovarian
[48] = tested on: CCRF-CEM leukemia
[49] = tested on: NCI/ADR-RES ovarian
[50] = tested on: HCT-116 colon
[51] = tested on: SW-620 colon
[52] = tested on: MDA-MB-468 breast
[53] = tested on: PC-3 prostate
[54] = tested on: MALME-3M melanoma
[55] = tested on: HCT-15 colon
[56] = tested on: UACC-62 melanoma

SMILES: CCN(C(=O)c1cc(F)ccc1Oc1cncnc1N1CC2(CCN(CC3CCC(NS(=O)(=O)CC)CC3)CC2)C1)C(C)C (configuration not stated)
- GI50 [1]: > 100 µM
- TGI [1]: > 100 µM
- GI50 [2]: 63.5 µM
- TGI [2]: > 100 µM
- GI50 [3]: 18.7 µM
- TGI [3]: > 100 µM
- GI50 [4]: > 100 µM
- TGI [4]: > 100 µM
- GI50 [5]: > 100 µM
- TGI [5]: > 100 µM
- GI50 [6]: > 100 µM
- TGI [6]: > 100 µM
- GI50 [7]: 81.2 µM
- TGI [7]: > 100 µM
- GI50 [8]: 24.5 µM
- TGI [8]: > 100 µM
- GI50 [9]: > 100 µM
- TGI [9]: > 100 µM
- GI50 [10]: > 100 µM
- TGI [10]: > 100 µM
- GI50 [11]: > 100 µM
- TGI [11]: > 100 µM
- GI50 [12]: > 100 µM
- TGI [12]: > 100 µM
- GI50 [13]: > 100 µM
- TGI [13]: > 100 µM
- GI50 [14]: > 100 µM
- TGI [14]: > 100 µM
- GI50 [15]: 0.753 µM
- TGI [15]: > 100 µM
- GI50 [16]: 2.2 µM
- TGI [16]: 41.5 µM
- GI50 [17]: > 100 µM
- TGI [17]: > 100 µM
- GI50 [18]: > 100 µM
- TGI [18]: > 100 µM
- GI50 [19]: > 100 µM
- TGI [19]: > 100 µM
- GI50 [20]: > 100 µM
- TGI [20]: > 100 µM
- GI50 [21]: > 100 µM
- TGI [21]: > 100 µM
- GI50 [22]: 78.3 µM
- TGI [22]: > 100 µM
- GI50 [23]: > 100 µM
- TGI [23]: > 100 µM
- GI50 [24]: > 100 µM
- TGI [24]: > 100 µM
- GI50 [25]: 1.17 µM
- TGI [25]: 3.67 µM
- GI50 [26]: > 100 µM
- TGI [26]: > 100 µM
- GI50 [27]: 92.3 µM
- TGI [27]: > 100 µM
- GI50 [28]: > 100 µM
- TGI [28]: > 100 µM
- GI50 [29]: 82.6 µM
- TGI [29]: > 100 µM
- GI50 [30]: 77.3 µM
- TGI [30]: > 100 µM
- GI50 [31]: > 100 µM
- TGI [31]: > 100 µM
- GI50 [32]: > 100 µM
- TGI [32]: > 100 µM
- GI50 [33]: > 100 µM
- TGI [33]: > 100 µM
- GI50 [34]: 2.94 µM
- TGI [34]: > 100 µM
- GI50 [35]: > 100 µM
- TGI [35]: > 100 µM
- GI50 [36]: > 100 µM
- TGI [36]: > 100 µM
- GI50 [37]: 72.3 µM
- TGI [37]: > 100 µM
- GI50 [38]: > 100 µM
- TGI [38]: > 100 µM
- GI50 [39]: > 100 µM
- TGI [39]: > 100 µM
- GI50 [40]: > 100 µM
- TGI [40]: > 100 µM
- GI50 [41]: > 100 µM
- TGI [41]: > 100 µM
- GI50 [42]: > 100 µM
- TGI [42]: > 100 µM
- GI50 [43]: > 100 µM
- TGI [43]: > 100 µM
- GI50 [44]: 92.7 µM
- TGI [44]: > 100 µM
- GI50 [45]: > 100 µM
- TGI [45]: > 100 µM
- GI50 [46]: > 100 µM
- TGI [46]: > 100 µM
- GI50 [47]: > 100 µM
- TGI [47]: > 100 µM
- GI50 [48]: 10.1 µM
- TGI [48]: 43.1 µM
- GI50 [49]: > 100 µM
- TGI [49]: > 100 µM
- GI50 [50]: > 100 µM
- TGI [50]: > 100 µM
- GI50 [51]: > 100 µM
- TGI [51]: > 100 µM
- GI50 [52]: 65.5 µM
- TGI [52]: > 100 µM
- GI50 [53]: > 100 µM
- TGI [53]: > 100 µM
- GI50 [54]: > 100 µM
- TGI [54]: > 100 µM
- GI50 [55]: > 100 µM
- TGI [55]: > 100 µM
- GI50 [56]: > 100 µM
- TGI [56]: > 100 µM
